Reference: patent US20180320128A1, “METHODS FOR MODULATING PRODUCTION PROFILES OF RECOMBINANT PROTEINS” (ARES TRADING S.A., priority 2015, published 2018)

Experiments:
[1] = system: mAb1 cells (CHO-S cells expressing IgG1 mAb1); assay: Fed-batch culture in 96 deep-well plates, constant osmolality (315 mOsm/kg), increasing sugar concentration (experimental approach 1); format: cell-based, Chinese hamster; conditions: for increase of High Mannose (HM) species of mAb1 with respect to control: absolute change; for cell growth with increasing sugar concentration: 0-127.5 mM; for increase of HM for mAb1 (overall conclusion): constant osmolality, concentration not given
Procedure: (§1) Assays were performed with two CHO cell lines: • CHO-S cells expressing IgG1 mAb1, herein “Cells mAb1” or “mAb1 cells”. “mAb1” is a fully human monoclonal antibody directed against a soluble protein. Its isoelectric point (pI) is about 8.20-8.30. • CHO-K1 cells expressing IgG1 mAb2, herein “Cells mAb2” or “mAb2 cells”. “mAb2” is a humanized monoclonal antibody directed against a receptor found on the cell membrane. Its isoelectric point (pI) is about 9.30.
(§2) Deepwell plates: Cells expressing mAb2 were inoculated at 0.2×10^6 cells per millilitre (mL), whereas cells expressing mAb1 were inoculated at 0.3×10^6 cells per mL.
(§3) All assays were performed in fed-batch culture.
(§4) A serum-free chemically defined culture medium was used. It was used as it is (o be adapted), or it was supplemented with D-(+)-Raffinose pentahydrate (Sigma-Aldrich, 83400-25G) at different concentrations (0-45 mM). The culture medium was fed, on a regular basis, with a chemically defined feed medium, as well as with glucose in order to keep said glucose level in the range of >0 to about 8 g/L.
(§5) The cultures were performed: • In deepwell plates with a working volume of 450 μL. They were incubated at 36.5° C., 5% de CO2, 90% humidity and shaken at 320 rpm. Each of the fed-batch culture lasted 14 days. • In Spin Tubes (ST) with a working volume of 30 mL (with as permable lid). They were inoculated with a cell density of 0.3*10^6 cells/mL and maintained at 36.5° C., 320 rpm, 5% CO2 and 90% humidity for 14 days.
(§6) Viable cell density and viability were measured with the Guava easyCyte® flow cytometer.
(§7) Antibody titers were measured with the fortéBIO Octet®.
(§8) Glycosylation profiles were established by capillary gel electrophoresis with laser-induced fluorescence (CGE-LIF). Groups of glycans were defined as thereafter in Table 2.
(§9) Experiment was performed to check whether high osmolality or high sugar concentration have an influence on the viability of the cells, VCD as well as on amount of High Mannose (HM) species. A chemically defined proprietary medium with lower osmolality (PM-200) compared to standard media, was used to vary sugar concentrations from 1-150 mM (green) while maintaining the osmolality of standard media (315 mOsm/kg) via supplementation with NaCl (blue), as illustrated in FIG. 1. Standard media and PM-200 differ in the composition, so the missing amounts of raw material were added (except NaCl). As sugars raffinose (a trisaccharide) and sucrose (a disaccharide) were chosen. Stock solutions (raffinose 22 mM, raffinose 220 mM, sucrose 50 mM, sucrose 1 M and NaCl 1 M) were prepared and added to the media before inoculation.
(§10) Stock solutions were prepared with media to prevent dilution. The given concentrations equal the concentrations in media before incoculation. CHO-S cells (=mAb1 cells) expressing mAb1 were expanded for 49 days, CHO-K1 (=mAb2 cells) expressing mAb2 were expanded for 28 days.

[2] = system: mAb2 cells (CHO-K1 cells expressing IgG1 mAb2); assay: as above; format: cell-based, Chinese hamster; conditions: for increase of High Mannose (HM) species of mAb2 with respect to control: absolute change; for increase of HM for mAb2 (overall conclusion): constant osmolality, concentration not given
Procedure: as §1, §2, §3, §4, §5, §6, §7, §8, §9, §10

[3] = system: mAb1 cells (CHO-S cells expressing IgG1 mAb1); assay: Fed-batch culture in Spin Tubes, constant osmolality (315 mOsm/kg), increasing raffinose concentration; format: cell-based, Chinese hamster
Procedure: as §1
Spintubes: Cells expressing both mAb1 and mAb2 were inoculated at 0.3×10^6 cells per mL.
as §3, §4, §5
Glycosylation profiles were established by capillary gel electrophoresis with laser-induced fluorescence (CGE-LIF). Groups of glycans were defined as thereafter in Table 2. […]
A second experiment with constant osmolality (315 mOsm/kg) and increasing raffinose concentration was performed in Spin Tubes with a working volume of 30 mL and mAb1 cells. FIG. 10a depicts VCD and viability from mAb1 cells of the experimental approach with constant osmolality and increasing raffinose concentration in Spin Tubes. […] The lowest VCD was obtained at 100 mM raffinose (10.2±0.2*10^6 cells/mL), as illustrated in FIG. 10b.

[4] = system: mAb2 cells (CHO-K1 cells expressing IgG1 mAb2); assay: Fed-batch culture in deep-well plates, 0 or 30 mM raffinose with increasing osmolality (experimental approach 2); format: cell-based, Chinese hamster
Procedure: as §1, §2, §3, §4, §5, §6, §7, §8, §10
The second experimental approach was performed with increasing osmolality and constant sugar concentrations (see table 3 and methods in example 1).

recombinant CHO cells = conditions: cited from earlier work
[5] = 1 mM sugar in medium, 315 mOsm/kg, 14-day culture
[6] = 80 mM sugar, 315 mOsm/kg, working day 14
[7] = 127.5 mM sugar, 315 mOsm/kg, working day 14
[8] = 5 mM sugar, 315 mOsm/kg, working day 14
[9] = 50 mM sugar, 315 mOsm/kg, working day 14
[10] = 100 mM sugar, 315 mOsm/kg, working day 14
[11] = 100 mM raffinose, Spin Tubes, absolute change
[12] = 425 mOsm/kg with 30 mM raffinose

OC[C@H]1O[C@@](CO)(O[C@H]2O[C@H](CO)[C@@H](O)[C@H](O)[C@H]2O)[C@@H](O)[C@@H]1O [sucrose, α-D-glucopyranosyl-(1→2)-β-D-fructofuranoside]
maximum cell concentration (VCD) [1, 5]: 18.2±1.7 *10^6 cells/mL | absolute harvest titer ([1]; 1 mM sugar, 315 mOsm/kg, working day 14): about 2800 mg/L | absolute harvest titer [1, 6]: ~2550 mg/L | specific productivity [1, 6]: about 26 pg/cell/day | increase of High Mannose (HM) species of mAb1 with respect to control ([1]; 100 mM sugar, 315 mOsm/kg): 14.2% | maximum cell concentration (VCD) ([1]; 127 mM (maximum tested) sugar, 315 mOsm/kg): 9.6±3.2 *10^6 cells/mL | increase of High Mannose (HM) species of mAb1 with respect to control ([1]; 127.5 mM sugar, 315 mOsm/kg): 14.3% | cell viability [1, 7]: ~64% | change of fucosylated species of mAb1 with increasing sugar concentration ([1]; 315 mOsm/kg): decrease | change of galactosylated, HM and non-fucosylated species of mAb1 with increasing sugar concentration ([1]; 315 mOsm/kg): increase | cell growth with increasing sugar concentration ([1]; 315 mOsm/kg): inhibited | specific productivity with increasing sugar concentration ([1]; 315 mOsm/kg, working day 14): no change | increase of HM for mAb1 (overall conclusion) [1]: 14% | absolute harvest titer [2, 8]: about 700 mg/L | maximum cell concentration (VCD) ([2]; 10 mM sugar, 315 mOsm/kg): 11.1±1.6 *10^6 cells/mL | absolute harvest titer [2, 9]: about 2100 mg/L | specific productivity [2, 9]: about 21 pg/cell/day | increase of High Mannose (HM) species of mAb2 with respect to control ([2]; 100 mM sugar, 315 mOsm/kg): 6.0% | maximum VCD (lowest of the conditions) ([2]; 127.5 mM sugar, 315 mOsm/kg): 6.9±1.1 *10^6 cells/mL | increase of High Mannose (HM) species of mAb2 with respect to control ([2]; 127.5 mM sugar, 315 mOsm/kg): 9.1% | specific productivity [2, 7]: about 24 pg/cell/day | change of fucosylated species of mAb2 with higher sugar concentration ([2]; 315 mOsm/kg): decrease | change of galactosylated, HM and non-fucosylated species of mAb2 with higher sugar concentration ([2]; 315 mOsm/kg): increase | increase of HM for mAb2 (overall conclusion) [2]: 9% | production of antibodies with respect to control ([2]; sugar supplementation, 315 mOsm/kg, working day 14): decrease

OC[C@H]1O[C@H](OC[C@H]2O[C@H](O[C@]3(CO)O[C@H](CO)[C@@H](O)[C@@H]3O)[C@H](O)[C@@H](O)[C@@H]2O)[C@H](O)[C@@H](O)[C@H]1O [raffinose, O-α-D-Galactopyranosyl-(1→6)-α-D-g lucopyranosyl-(1→2)-β-D-fructofuranoside]
maximum cell concentration (VCD) [1, 5]: 16.2±1.0 *10^6 cells/mL | cell viability [1, 8]: about 57% | absolute harvest titer ([1]; 10 mM sugar, 315 mOsm/kg, working day 14): about 2650 mg/L | increase of High Mannose (HM) species of mAb1 with respect to control ([1]; 50 mM sugar, 315 mOsm/kg): 6.8% | maximum cell concentration (VCD) ([1]; 100 mM sugar in medium, 315 mOsm/kg): 2.3±2.1 *10^6 cells/mL | specific productivity [1, 10]: about 45 pg/cell/day | product titer compared to control ([1]; 1-65 mM sugar, 315 mOsm/kg, working day 14): higher product titer than control | absolute harvest titer ([1]; 80-127.5 mM sugar, 315 mOsm/kg, working day 14): 825 to 975 mg/L | change of fucosylated species of mAb1 with increasing sugar concentration ([1]; 315 mOsm/kg): decrease | change of galactosylated, HM and non-fucosylated species of mAb1 with increasing sugar concentration ([1]; 315 mOsm/kg): increase | cell growth with increasing sugar concentration ([1]; 315 mOsm/kg): inhibited | specific productivity with increasing sugar concentration ([1]; 315 mOsm/kg, working day 14): increased | increase of HM for mAb1 (overall conclusion) [1]: 7% | maximum cell concentration (VCD) ([2]; 5 mM sugar, 315 mOsm/kg): 11.85±1.1 *10^6 cells/mL | maximum VCD (lowest of the conditions) ([2]; 80 mM sugar, 315 mOsm/kg): 6.4±1.7 *10^6 cells/mL | specific productivity ([2]; 100 mM sugar, 315 mOsm/kg): about 30 pg/cell/day | increase of High Mannose (HM) species of mAb2 with respect to control ([2]; 100 mM sugar, 315 mOsm/kg): 6.3% | harvest titer [2, 10]: about 2350 mg/L | cell growth with increasing sugar concentration ([2]; 315 mOsm/kg): reduced | change of fucosylated species of mAb2 with higher sugar concentration ([2]; 315 mOsm/kg): decrease | change of galactosylated, HM and non-fucosylated species of mAb2 with higher sugar concentration ([2]; 315 mOsm/kg): increase | increase of HM for mAb2 (overall conclusion) [2]: 6% | maximum cell concentration (VCD) ([3]; 10 mM raffinose, Spin Tubes, n=2): 17.8±0.2 *10^6 cells/mL | concentration of antibodies (harvest titer) ([3]; 10 mM raffinose, working day 14, Spin Tubes): about 2200 mg/L | increase of productivity versus control ([3]; 100 mM raffinose, Spin Tubes): about 64% | productivity per cell per day (PCD), peak ([3]; 100 mM raffinose, Spin Tubes): about 23 pg/cell/day | viability at the end of cultivation ([3]; 100 mM raffinose, Spin Tubes): about 86% | decrease of fucosylated glycans of mAb1 with respect to control [3, 11]: 15.9% | increase of Man5 of mAb1 with respect to control [3, 11]: 7.7% | maximum VCD (lowest of the conditions) ([3]; 100 mM raffinose, Spin Tubes, n=2): 10.2±0.2 *10^6 cells/mL | acid isoforms and amount of aggregates with increasing raffinose concentration ([3]; Spin Tubes, data not shown): increased | amount of alkaline isoforms with increasing raffinose concentration ([3]; Spin Tubes, data not shown): decreased | absolute change of unknown, galactosylated and sialylated glycoforms ([3]; raffinose supplementation, Spin Tubes): not affected | absolute harvest titer compared to control ([3]; supplemented raffinose (10-100 mM), Spin Tubes): higher than the control | viability at the end of the experiment ([4]; 375 mOsm/kg and 30 mM raffinose): about 59% | absolute harvest titer ([4]; 425 mOsm/kg and 30 mM raffinose, working day 14): about 1150 mg/L | increase of HM species of mAb2 with respect to control (315 mOsm/kg) [4, 12]: 8.5% | maximum VCD (lowest of the conditions) [4, 12]: 8.2±2.3 *10^6 cells/mL

CCCC(=O)[O-].[Na+] [sodium butyrate]
cell viability at the end of the production run (recombinant CHO cells; batch culture, after 8 days of culture): less than 45% | cell viability (recombinant CHO cells; perfusion batch culture, within 6 days of treatment): 15%
